Patent US20070099995A1, “Use of hydroxyoleic acid and related compounds as functional food additives” (priority 2003, published 2007)

What was measured:
[1] = Systolic arterial pressure in normotensive WKY rats; type: in vivo, rat; settings: male WKY (normotensive) rats, 600 mg/kg every 12 hours for 7 days, FIG. 6
Description: (§1) 2-Hydroxyoleic acid induced significant reductions of blood pressure in rats (FIG. 4a). These reductions occurred rapidly (at 2 hours of treatment, 19±6 mmHg, P<0.01, n=6) and after a long period (1 week, 26±7 mmHg, P<0.001, n=6). In genetically hypertensive rats, SHR strain, ingestion of 2-hydroxyoleic acid (600 mg/kg every 12 hours) produced very marked reductions in blood pressure. These reductions, of some 70 mmHg, induced normalization of systolic pressure in hypertensive SHR rats.
(§2) In SHRs which were not given 2-hydroxyoleic acid (SHR empty squares), no reduction in arterial pressure was observed. […] The reduction induced by hydroxyoleic acid on arterial pressure meant that there was no significant difference between the values registered at the end of the diet period for the hypertensive and normotensive rats.

Blood pressure in humans = type: in vivo, human; settings: 90 mg/kg per day for 8 days, FIG. 4b
Description: The days prior to treatment are shown with negative values. *P<0.05, **P<0.01.

[2] = Body weight of normotensive (WKY) and hypertensive (SHR) rats; type: in vivo, rat; settings: 600 mg/kg every 12 hours, 8 days
Description: In another series of experiments, the diet of normotensive rats (WKY) and hypertensive rats (SHR) was supplemented with hydroxyoleic acid (600 mg/kg, every 12 hours) and it was confirmed that the weight of the animals decreased by between 30 and 40 grams (15-20% of the body weight) in an 8-day diet period (FIG. 8).

G-proteins = test: Binding of [35S]GTPγS to membranes of NIH 3T3 cells transfected with the rat adrenoceptor α2A/D (activity of G-proteins); type: biochemical; settings: membranes of NIH 3T3 cells transfected with rat adrenoceptor α2A/D; FIG. 2; compared with daunomycin
Description: Hydroxyoleic acid and related compounds are capable of modulating the activity of G-proteins, measured by the binding of [^35S] GTPγS (FIG. 2). […] Abscissa: C=control; 2OHOA=2-hydroxyoleic; DNM=daunomycin. Ordinate: Binding of [^35S]GTPγS (% of control).

[3] = Systolic arterial pressure in genetically hypertensive rats, SHR strain; type: in vivo, rat
Description: as §1, §2

[4] = Hypotensive test: systolic arterial pressure in female Sprague-Dawley rats; type: in vivo, rat; settings: for reduction of blood pressure: rats; for effect on systolic arterial pressure with respect to the control: short-term (2 to 4 hours) administration, female Sprague-Dawley rats, FIG. 5
Description: as §1

[5] = Blood pressure and heart rate after ingestion (species not stated); type: in vivo; settings: chronic treatments lasting a week
Description: The hypotensive effect produced by ingestion of 2-hydroxyoleic acid and its analogs results in a reduction in blood pressure within 2 hours of ingestion, and this is maintained for days and weeks while ingestion of this compound is maintained. Aminoleic acid, for example, reduces blood pressure by 15 mmHg in chronic treatments lasting a week.

CCCCCCCC/C=C\CCCCCCC(O)C(=O)O (stereo not drawn) [2-hydroxyoleic acid, cis-2-hydroxy-9-octadecenoic acid]
effect on arterial pressure [1]: neither the 2-hydroxyoleic acid (black circles) nor the vehicle (empty circles) produced statistically significant changes
effect on blood pressure (Blood pressure in humans): significant, large decreases
reduction in body weight [2]: 15-20%
Binding of [35S]GTPγS (function of the G-proteins) (G-proteins): decrease in function of the G-proteins even greater than daunomycin
reduction in blood pressure (systolic) ([3]; SHR rats, 600 mg/kg every 12 hours): ~70 mmHg
effect on systolic arterial pressure ([3]; male SHR rats, 600 mg/kg every 12 hours for 7 days, FIG. 6): significant, large reductions
reduction of blood pressure ([4]; 1 week (chronic, 90 mg/kg per day for 7 days, FIG. 4a), n=6, P<0.001): 26±7 mmHg
reduction of blood pressure ([4]; at 2 hours of treatment (acute, 30 mg/kg, FIG. 4a), n=6, P<0.01): 19±6 mmHg
effect on systolic arterial pressure with respect to the control [4]: significant decreases

CCCCCCCC/C=C\CCCCCCC(C)C(=O)O (stereo not drawn) [2-methyl oleic acid]
effect on systolic arterial pressure with respect to the control [4]: significant decreases

CCCCCC/C=C\CCCCCCCCCC(=O)O [cis-vaccenic acid]
effect on systolic arterial pressure with respect to the control [4]: significant decreases

CCCCCCCC/C=C\CCCCCCCCCCCCCC(=O)O [nervonic acid]
effect on systolic arterial pressure with respect to the control [4]: significant decreases

CCCCCCCC/C=C\CCCCCCCC(=O)O [oleic acid]
effect on systolic arterial pressure with respect to the control [4]: significant decreases

CCCCCC/C=C\CCCCCCCC(=O)O [palmitoleic acid]
effect on systolic arterial pressure with respect to the control [4]: significant decreases

Aminoleic acid
reduction of blood pressure [5]: 15 mmHg
